Where a name gives a salt, the structure may show the parent alone. Read-outs that look alike come from different tables or passages of the source.
Columns and labels:
Assay type in all cases: biochemical
[1] = biological target: human ENPP2 (Homo sapiens (Human), UniProt Q13822); test: Inhibitory activity on human ENPP2 (FS-3 assay)
Procedure: Two-fold dilution of each test compound solution (10 μM, 100% dimethyl sulfoxide) is carried out on 96-well V bottom plate (Costar 3363). After ten-fold dilution of each the test compound solution (100% dimethyl sulfoxide) with deionized distilled water, 10 μL of the diluted each mpound solution (10% dimethyl sulfoxide) was aliquoted to a black flat bottom 96-well plate (Costar 3915).

[2] = tested on: LPA production in blood serum caused by autotoxin; test: Inhibitory activity on LPA production in mouse blood serum; settings: mouse blood serum (m), 18:1 LPC, 3 hours at 37° C.
Procedure: After 100-fold dilution of each test compound solution (5 μL) (10 mM, 100%, dimethyl sulfoxide) with 495 μL of methanol, 3 μL of the diluted methanol solution (1% dimethyl sulfoxide) was mixed with 57 μL of human or mouse blood serum solution in a 1.5 mL tube. […] Subsequently, a solution prepared by diluting 10 mg/mL 18:1 LPC solution (50% ethanol) with blood serum to have concentration of 375 μg/mL was aliquoted in an amount of 2 μL to each tube so as to have 50 μL. Each tube was kept for 3 hours in a water bath at 37° C. to allow a reaction. To the tube obtained after the reaction, 100 μL of 0.5 μM 17:0 LPA solution (chloroform/methanol/water=65/35/8) was aliquoted and mixed therein. Centrifuge was carried out for 10 minutes using a centrifuge at conditions of 14,000 rpm and 4° C. 100 μL of 50% methanol solution is aliquoted first to a 96-well polypropylene plate (Agilent Technology 5042-1385), and the supernatant (50 μL) in a tube after the centrifuge was carefully transferred to the plate followed by mixing. After covering it with Well cap (Thermo 276011), analysis was carried out by LC-MS/MS (Agilent 1260).
In the following Table 3, the mouse blood serum was described as (m) and human blood serum was described as (h).

[3] = biological target: human ATX (Homo sapiens (Human), UniProt Q13822); test: Bis-pNPP assay; settings: bis-pNPP substrate, read-out: Enzymatic assay (IC50) bis-pNPP
Procedure: Eight-fold dilution of each test compound solution (10 μM, 100% dimethyl sulfoxide) is carried out on 96-well V bottom plate (Costar 3363). After […] of each test compound solution (100% dimethyl sulfoxide) with deionized distilled water, 10 μL of the diluted each test compound solution (10% dimethyl sulfoxide) was aliquoted to a black flat bottom 96-well plate (Costar 3915). 50 μL of 60 mM Tris-HCl (pH9.0) buffer was added thereto, and subsequently 20 μL of 3.75 nM human ATX solution (buffer solution: 50 mM Tris-HCl (pH8.5), 5 mM CaCl2, 2.5 mM MgCl2, 0.01% Brij35) and 20 μL of 25 mM Bis-pNPP (bis(p-Nitrophenyl)-phosphate sodium salt) solution (buffer solution: 50 mM Tris-HCl (pH9.0)) were added thereto, respectively, followed by mixing. […] Furthermore, IC50 values that are shown in Table 3 were calculated using Grafit5 Software based on the inhibitory activity percentage ratio.

[4] = human ENPP2, FS-3 substrate, 30 min at 37° C., read-out: IC50
[5] = FS-3 assay, same process as Test example 1, read-out: Enzymatic assay (IC50) FS-3

Row | Compound | IC50 [1, 4] | IC50 [2] | IC50 [3] | other results
1 | O=C(Cn1cc(-c2cnc(NC3Cc4ccccc4C3)nc2)c(CN2CCNCC2)n1)N1CCc2[nH]nnc2C1 [Compound 89, 2-(4-{2-[(2,3-dihydro-1H-inden-2-yl)amino]pyrimidin-5-yl}-3-(piperazin-1-ylmethyl)-1H-pyrazol-1-yl)-1-{1H,4H,5H,6H,7H-[1,2,3]triazolo[4,5-c]pyridin-5-yl}ethan-1-one] | 4.2 nM | 21 nM | – | –
2 | CC(C)(CN1CCc2[nH]nnc2C1)C(=O)N1CCN(c2cnc(NC3Cc4ccccc4C3)nc2)CC1 [Compound 19, 1-(4-{2-[(2,3-dihydro-1H-inden-2-yl)amino]pyrimidin-5-yl}piperazin-1-yl)-2,2-dimethyl-3-{1H,4H,5H,6H,7H-[1,2,3]triazolo[4,5-c]pyridin-5-yl}propan-1-one] | 3.1 nM | 25 nM | – | –
3 | O=C(NC[C@H]1CN(c2ccc3[nH]c(=O)oc3c2)C(=O)O1)c1cnc(NCc2cccc(OC(F)(F)F)c2)nc1 [Compound 10, N-{[(5S)-2-oxo-3-(2-oxo-2,3-dihydro-1,3-benzoxazol-6-yl)-1,3-oxazolidin-5-yl]methyl}-2-({[3-(trifluoromethoxy)phenyl]methyl}amino)pyrimidine-5-carboxamide] | – | 10 nM | – | IC50 ([1]; read-out: IC50): 2.8 nM
4 | O=C(CN1CCN(c2cnc(NC3Cc4ccccc4C3)nc2)CC1)N1CCc2[nH]nnc2C1 [Compound 20, 2-(4-{2-[(2,3-dihydro-1H-inden-2-yl)amino]pyrimidin-5-yl}piperazin-1-yl)-1-{1H,4H,5H,6H,7H-[1,2,3]triazolo[4,5-c]pyridin-5-yl}ethan-1-one] | 2.6 nM | 29 nM | – | –
5 | O=C(NCCC(=O)N1CCc2[nH]nnc2C1)c1cnc(NCc2cccc(OC(F)(F)F)c2)nc1 [Compound 2, N-(3-oxo-3-{1H,4H,5H,6H,7H-[1,2,3]triazolo[4,5-c]pyridin-5-yl}propyl)-2-({[3-(trifluoromethoxy)phenyl]methyl}amino)pyrimidine-5-carboxamide] | 2.1 nM | 23 nM | – | –
6 | O=C(CN1CCN(c2cnc(NC3Cc4ccccc4C3)nc2)CC1)Nc1ccc2[nH]c(=O)oc2c1 [Compound 27, 2-(4-{2-[(2,3-dihydro-1H-inden-2-yl)amino]pyrimidin-5-yl}piperazin-1-yl)-N-(2-oxo-2,3-dihydro-1,3-benzoxazol-6-yl)acetamide] | 2.4 nM | 10 nM | – | –
7 | O=C(CCN1CCc2[nH]nnc2C1)N1CCC(c2cnc(NC3Cc4ccccc4C3)nc2)CC1 [Compound 14, 1-(4-{2-[(2,3-dihydro-1H-inden-2-yl)amino]pyrimidin-5-yl}piperidin-1-yl)-3-{1H,4H,5H,6H,7H-[1,2,3]triazolo[4,5-c]pyridin-5-yl}propan-1-one] | 2.4 nM | 8 nM | – | –
8 | O=C(Cc1cn(-c2ccc(Cl)cc2)c(-c2cnc(NC3Cc4ccccc4C3)nc2)n1)N1CCc2[nH]nnc2C1 [Compound 117, 2-[1-(4-chlorophenyl)-2-{2-[(2,3-dihydro-1H-inden-2-yl)amino]pyrimidin-5-yl}-1H-imidazol-4-yl]-1-{1H,4H,5H,6H,7H-[1,2,3]triazolo[4,5-c]pyridin-5-yl}ethan-1-one] | – | – | > 100 nM | IC50 [1, 5]: 1.84 nM
9 | NC1CCC(c2nn(CC(=O)N3CCc4[nH]nnc4C3)cc2-c2cnc(NC3Cc4ccccc4C3)nc2)CC1 (stereo not shown) [Compound 99, 2-[3-(4-aminocyclohexyl)-4-{2-[(2,3-dihydro-1H-inden-2-yl)amino]pyrimidin-5-yl}-1H-pyrazol-1-yl]-1-{1H,4H,5H,6H,7H-[1,2,3]triazolo[4,5-c]pyridin-5-yl}ethan-1-one] | – | – | 5.59 nM | IC50 [1, 5]: 2.8 nM
10 | O=C(CCN1CCc2[nH]nnc2C1)N1CCN(c2cnc(NCc3cccc(OC(F)(F)F)c3)nc2)CC1 [Compound 13, 3-{1H,4H,5H,6H,7H-[1,2,3]triazolo[4,5-c]pyridin-5-yl}-1-{4-[2-({[3(trifluoromethoxy)phenyl]methyl}amino)pyrimidin-5-yl]piperazin-1-yl}propan-1-one] | 3.7 nM | 13 nM | – | –
11 | O=C(CCN1CCc2[nH]nnc2C1)N1CCN(c2cnc(NC3Cc4ccccc4C3)nc2)CC1 [Compound 12, 1-(4-{2-[(2,3-dihydro-1H-inden-2-yl)amino]pyrimidin-5-yl}piperazin-1-yl)-3-{1H,4H,5H,6H,7H-[1,2,3]triazolo[4,5-c]pyridin-5-yl}propan-1-one] | 3.2 nM | 11 nM | – | –
12 | O=C(CN1CCC(c2cnc(NC3Cc4ccccc4C3)nc2)CC1)N1CCc2[nH]nnc2C1 [Compound 22, 2-(4-{2-[(2,3-dihydro-1H-inden-2-yl)amino]pyrimidin-5-yl}piperidin-1-yl)-1-{1H,4H,5H,6H,7H-[1,2,3]triazolo[4,5-c]pyridin-5-yl}ethan-1-one] | 2.9 nM | 57 nM | – | –
13 | Cc1nc(-c2cnc(NC3Cc4ccccc4C3)nc2)cn1CC(=O)N1CCc2[nH]nnc2C1 [Compound 107, 2-(4-{2-[(2,3-dihydro-1H-inden-2-yl)amino]pyrimidin-5-yl}-2-methyl-1H-imidazol-1-yl)-1-{1H,4H,5H,6H,7H-[1,2,3]triazolo[4,5-c]pyridin-5-yl}ethan-1-one] | – | – | 4.87 nM | IC50 [1, 5]: 1.56 nM
14 | O=C(O)c1ccc(-c2nn(CC(=O)N3CCc4[nH]nnc4C3)cc2-c2cnc(NC3Cc4ccccc4C3)nc2)cc1 [Compound 119, 4-(4-{2-[(2,3-dihydro-1H-inden-2-yl)amino]pyrimidin-5-yl}-1-(2-oxo-2-{1H,4H,5H,6H,7H-[1,2,3]triazolo[4,5-c]pyridin-5-yl}ethyl)-1H-pyrazol-3-yl)benzoic Acid] | – | – | 9.19 nM | IC50 [1, 5]: < 1.56 nM
15 | O=C(CO)N1CCC(c2nn(CC(=O)N3CCc4[nH]nnc4C3)cc2-c2cnc(NC3Cc4ccccc4C3)nc2)CC1 [Compound 118, 1-[4-(4-{2-[(2,3-dihydro-1H-inden-2-yl)amino]pyrimidin-5-yl}-1-(2-oxo-2-{1H,4H,5H,6H,7H-[1,2,3]triazolo[4,5-c]pyridin-5-yl}ethyl)-1H-pyrazol-3-yl)piperidin-1-yl]-2-hydroxyethan-1-one] | – | – | 5.3 nM | IC50 [1, 5]: < 1.56 nM
16 | O=C(Cc1nnc(-c2cnc(NCc3cccc(OC(F)(F)F)c3)nc2)o1)N1CCc2[nH]nnc2C1 [Compound 34, 1-{1H,4H,5H,6H,7H-[1,2,3]triazolo[4,5-c]pyridin-5-yl}-2-{5-[2-({[3-(trifluoromethoxy)phenyl]methyl}amino)pyrimidin-5-yl]-1,3,4-oxadiazol-2-yl}ethan-1-one] | 2 nM | 52 nM | – | –
17 | NNC(=O)C1=CCN(C(=O)Cc2nnc(-c3cnc(NC4Cc5ccccc5C4)nc3)o2)CC1 [Compound 120, 1-[2-(5-{2-[(2,3-dihydro-1H-inden-2-yl)amino]pyrimidin-5-yl}-1,3,4-oxadiazol-2-yl)acetyl]-1,2,3,6-tetrahydropyridine-4-carbohydrazide Hydrochloride] | – | – | 380 nM | IC50 [1]: 25.9 nM

Reference: patent US10961242B2, “Compounds as autotaxin inhibitors and pharmaceutical compositions comprising the same” (LegoChem Biosciences, Inc., priority 2018, dated 2021)
